Data set [1] relates to SMCs (human aortic smooth muscle cells). In words: Cell cytotoxicity, colorimetric MTT assay. The procedure: SMCs (human aortic smooth muscle cells, Cambrex, USA) were cultured in SmGM-2 BulletKit (Cambex, USA) medium containing 10% FBS (Cambrex, USA), with 100× antibiotics (Cambex, USA) added thereto, and subcultured by using 1×trypsin-EDTA (Gibco BRL, USA) with maintaining the condition of 37° C., 5% CO2.
Before confirming whether ginsenoside and red ginseng extract affect the growth of muscle cell, the cell cytotoxicity was determined as the effect of cell cytotoxicity induced by ginsenosides Rk1, Rg3, and Rg5, red ginseng extract, and the present composition in muscle cell.
The cell cytotoxicity to the sample was determined by colorimetric MTT assay (Scudiero D. A. et al., Cancer Res., 48:4827-4833, 1988). That is, the muscle cell was plated to 96 wells microtiter tissue culture plate (Falcon) by 1×10^4 cells/ml, and then each well was treated with the sample, cultured for a certain period of time, treated with MTT sample, and melted with solubilization solution when formazan was formed, and the absorbance was determined at 540 nm.
For orientation: Tetrazolium dyes change colour on reduction, which living cells bring about.

Data set [2] has the same test system. Description: Cell proliferation ELISA BrdU assay. The class given is cell-based. The note with it: for inhibition at 5 µg/mL: Homo sapiens, at the concentration of 5 μg/ml, FIGS. 3 and 4, read-out: inhibition of the growth of muscle cell; for inhibition of the growth of muscle cell (in words): absorbance 450 nm, FIGS. 3 and 4. The procedure:
To determine the effects of cell proliferation by the sample, Cell proliferation ELISA BrdU assay kit (Roche, USA) was purchased and used. Cells were put into 96 wells plate, treated with the sample after cultivation, and cultured for a certain period of time. At a certain point of time, BrdU labeling solution was added into the cells, which in turn were reacted at 37° C., in 5% CO2 for 2 hr. Then, FixDenat was added thereto, and the mixture was reacted at the room temperature for 30 min. And, Anti-BrdU-POD working solution was added thereto, and the mixture was reacted at the room temperature for 1 hr and 30 min. Afterwards, substrate solution was added thereto, and the mixture was reacted at the room temperature for 20 min. The reaction was stopped by using sulphuric acid, and then the absorbance was determined at 450 nm.
A general note: In an ELISA, binding on a coated surface is turned into a signal by an enzyme label.

Setting [3] is: MTT, absorbance 540 nm, proper concentration, FIGS. 1 and 2.

Read-outs that look alike come from different tables or passages of the source.

As usually defined, the inhibition is how much of the control response was suppressed.

`CC(C)=CCC[C@](C)(O)[C@H]1CC[C@]2(C)[C@@H]1[C@H](O)C[C@@H]1[C@@]3(C)CC[C@H](O[C@@H]4O[C@H](CO)[C@@H](O)[C@H](O)[C@H]4O[C@@H]4O[C@H](CO)[C@@H](O)[C@H](O)[C@H]4O)C(C)(C)[C@@H]3CC[C@]12C` [Rg3, ginsenoside Rg3]: the “cell cytotoxicity in muscle cell” value in data set [1] was “no cell cytotoxicity was found”. In data set [2], the inhibition at 5 µg/mL was 50% and the “inhibition of the growth of muscle cell (in words)” value (shortened to “inhibition … (in words)”) is reported as “inhibited the growth of muscle cell”.

Regarding `CC(C)=CC/C=C(/C)C1CCC2(C)C1C(O)CC1C3(C)CCC(OC4OC(CO)C(O)C(O)C4OC4OC(CO)C(O)C(O)C4O)C(C)(C)C3CCC12C` (centres unmarked) [Rg5, ginsenoside Rg5], in data set [1] (setting [3]), the “cell cytotoxicity in muscle cell” value is listed as “no cell cytotoxicity was found”. In data set [2], the inhibition at 5 µg/mL was 50% and the “inhibition … (in words)” value was “inhibited the growth of muscle cell”.

Consider `C=C(CCC=C(C)C)C1CCC2(C)C1C(O)CC1C3(C)CCC(OC4OC(CO)C(O)C(O)C4OC4OC(CO)C(O)C(O)C4O)C(C)(C)C3CCC12C` (centres unmarked) [Rk1, ginsenoside Rk1], for which the “cell cytotoxicity in muscle cell” value in data set [1] (setting [3]) was “no cell cytotoxicity was found”. Besides, in data set [2], the “inhibition … (in words)” value was “inhibited the growth of muscle cell”.

These data come from patent US20080311169A1, “Composition Comprising Ginsenosides for Treating or Preventing Angiostenosis and Restenosis” (priority 2004, published 2008).
